From PMC6021032, “Antimycobacterial activity of nitrogen heterocycles derivatives: 7-(pyridine-4-yl)-indolizine derivatives. Part VII^8–12” (Journal of Enzyme Inhibition and Medicinal Chemistry, 2017)
Like-named read-outs stand apart in the source and are kept apart here.

Tests used:
[1] = target: T1, CYP2C9 (Homo sapiens, UniProt P11712); test: Cytochrome P450 inhibition in human liver microsomes; type: in vitro ADME
T1 construct: Compounds were incubated with human liver; from tissue; host or cells: human liver microsomes

[2] = test system: Mycobacterium tuberculosis H37Rv; test: Primary screen (Cycle 1): MIC, IC50, IC90 under aerobic conditions; type: cell-based
[3] = test system: human liver cells (HepG2); test: HepG2 cytotoxicity (CellTiter-Glo); type: cell-based; settings: read-out: IC50 (50% loss of viability), 72 h
[4] = target: T2, CYP2C8 (Homo sapiens, UniProt P10632); test: Cytochrome P450 inhibition in human liver microsomes; type: in vitro ADME
T2 construct: Compounds were incubated with human liver; from tissue; host or cells: human liver microsomes
T2 sequence (P10632 1-490): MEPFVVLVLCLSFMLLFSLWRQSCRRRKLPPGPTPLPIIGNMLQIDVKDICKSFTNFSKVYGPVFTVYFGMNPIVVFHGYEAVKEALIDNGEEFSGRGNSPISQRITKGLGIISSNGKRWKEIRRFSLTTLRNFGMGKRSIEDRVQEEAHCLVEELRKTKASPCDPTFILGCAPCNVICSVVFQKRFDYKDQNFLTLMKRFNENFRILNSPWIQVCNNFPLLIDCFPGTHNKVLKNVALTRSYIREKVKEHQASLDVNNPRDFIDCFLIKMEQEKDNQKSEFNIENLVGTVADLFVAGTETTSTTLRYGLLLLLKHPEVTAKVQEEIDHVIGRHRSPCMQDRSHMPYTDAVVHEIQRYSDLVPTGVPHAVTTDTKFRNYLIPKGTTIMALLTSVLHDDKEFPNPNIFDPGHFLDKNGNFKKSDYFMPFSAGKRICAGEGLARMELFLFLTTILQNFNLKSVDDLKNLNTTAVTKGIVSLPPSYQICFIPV

[5] = target: T3, CYP3A4 (Homo sapiens, UniProt P08684); test: as above; type: in vitro ADME
T3 construct: Compounds were incubated with human liver; from tissue; host or cells: human liver microsomes

[6] = target: T4, CYP2C19 (Homo sapiens, UniProt P33261); test: as above; type: in vitro ADME
T4 construct: Compounds were incubated with human liver; from tissue; host or cells: human liver microsomes

[7] = Cytotoxicity, THP-1 cell viability (CellTiter-Glo); settings: human
[8] = target: T5, CYP2D6 (Homo sapiens, UniProt P10635); test: Cytochrome P450 inhibition in human liver microsomes; type: in vitro ADME
T5 construct: Compounds were incubated with human liver; from tissue; host or cells: human liver microsomes

[9] = test system: Mtb H37Rv; test: LORA parallel plates, oxygen-deprived bacteria incubated under aerobic conditions (normal oxygen); type: cell-based, Mycobacterium tuberculosis; settings: Mycobacterium tuberculosis, H37RV
[10] = test system: M. tuberculosis H37Rv; test: Cycle 2 repeat of MIC, IC50, IC90 under aerobic conditions (lower starting concentrations); type: cell-based, Mycobacterium tuberculosis; settings: Mycobacterium tuberculosis, revaluation
[11] = in vitro; settings: human
Excerpt: The stability of compound is expressed as a function of time[41]^,[42]
3.4. In vitro Microsomal Stability Assay
compound to detect NADPH-free degradation. Verapamil and dextromethorphan were
included as control compounds.

[12] = Plasma protein binding by equilibrium dialysis
[13] = test system: Mycobacterium avium; test: MIC against nontuberculous mycobacteria (Alamar blue); type: cell-based; settings: M. avium
[14] = target: T6, CYP2B6 (Homo sapiens, UniProt P20813); test: Cytochrome P450 inhibition in human liver microsomes; type: in vitro ADME
T6 construct: Compounds were incubated with human liver; from tissue; host or cells: human liver microsomes
T6 sequence (P20813 1-491): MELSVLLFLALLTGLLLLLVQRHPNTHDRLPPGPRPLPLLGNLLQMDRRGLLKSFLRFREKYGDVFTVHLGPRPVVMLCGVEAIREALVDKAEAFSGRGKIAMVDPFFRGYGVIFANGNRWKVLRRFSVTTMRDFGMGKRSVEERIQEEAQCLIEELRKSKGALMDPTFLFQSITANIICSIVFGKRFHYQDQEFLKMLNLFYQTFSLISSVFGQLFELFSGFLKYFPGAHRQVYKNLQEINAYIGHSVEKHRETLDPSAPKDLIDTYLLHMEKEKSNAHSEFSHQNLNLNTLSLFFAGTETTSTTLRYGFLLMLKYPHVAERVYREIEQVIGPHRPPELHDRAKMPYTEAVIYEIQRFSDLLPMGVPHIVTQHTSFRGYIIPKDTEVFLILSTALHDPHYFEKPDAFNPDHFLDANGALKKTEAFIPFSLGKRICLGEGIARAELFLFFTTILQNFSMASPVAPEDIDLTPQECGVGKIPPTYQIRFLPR

[15] = Caco-2 permeability assay; settings: human, Caco-2
Method: The Caco-2 cell layer permeability assay is widely used as a more predictive in vitro model of absorption through the intestinal epithelium. […] For B–A permeability, test compound was added to the basal side of the Caco-2 monolayer and the transport of the compound to the apical side monitored. The amount of compound present in each compartment was quantified by LC-MS/MS.
recovered and analyzed by LC-MS/MS.
3.2. Caco-2 Permeability Assay
feeding at 2-day intervals.
Each experiment included the
contained transport buffer at pH 7.4.
3.3. Cytochrome P450 Inhibition Assay
and was < 0.2%. Samples were run in duplicate. Compounds were incubated with human liver

[16] = test system: Mycobacterium abscessus; test: MIC, IC50, IC90 against nontuberculous mycobacteria (OD590); type: cell-based; settings: M. abscessus
[17] = Mycobacterium tuberculosis, M. tuberculosis H37Rv, aerobic conditions, primary screen

T3 sequence (P08684 whole entry): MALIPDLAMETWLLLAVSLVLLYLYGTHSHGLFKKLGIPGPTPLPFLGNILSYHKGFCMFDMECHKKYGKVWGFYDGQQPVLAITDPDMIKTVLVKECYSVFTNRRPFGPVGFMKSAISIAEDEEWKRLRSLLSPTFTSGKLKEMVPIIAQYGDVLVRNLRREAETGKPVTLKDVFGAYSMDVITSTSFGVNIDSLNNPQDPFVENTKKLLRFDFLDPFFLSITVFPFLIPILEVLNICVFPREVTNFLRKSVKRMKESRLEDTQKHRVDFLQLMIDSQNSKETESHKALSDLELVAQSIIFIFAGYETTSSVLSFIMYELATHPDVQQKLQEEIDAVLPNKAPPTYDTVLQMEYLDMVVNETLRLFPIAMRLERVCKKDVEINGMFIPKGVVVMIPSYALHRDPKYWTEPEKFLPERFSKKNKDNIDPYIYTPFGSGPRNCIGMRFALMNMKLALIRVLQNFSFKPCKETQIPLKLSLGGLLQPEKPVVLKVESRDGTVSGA
T5 sequence (P10635 whole entry): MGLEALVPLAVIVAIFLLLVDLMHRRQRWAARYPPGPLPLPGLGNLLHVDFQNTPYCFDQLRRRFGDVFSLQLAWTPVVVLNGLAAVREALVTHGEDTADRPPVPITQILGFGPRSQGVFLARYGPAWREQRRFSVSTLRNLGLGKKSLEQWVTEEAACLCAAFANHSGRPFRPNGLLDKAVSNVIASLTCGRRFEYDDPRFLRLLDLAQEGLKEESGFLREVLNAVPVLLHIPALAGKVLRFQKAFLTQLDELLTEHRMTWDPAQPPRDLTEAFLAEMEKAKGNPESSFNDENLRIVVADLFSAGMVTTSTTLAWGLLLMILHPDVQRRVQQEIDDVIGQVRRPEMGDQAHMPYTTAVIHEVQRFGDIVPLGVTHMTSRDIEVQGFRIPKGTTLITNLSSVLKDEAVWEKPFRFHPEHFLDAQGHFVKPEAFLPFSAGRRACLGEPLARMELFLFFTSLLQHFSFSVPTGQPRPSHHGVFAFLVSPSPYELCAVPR
T1 sequence (P11712 whole entry): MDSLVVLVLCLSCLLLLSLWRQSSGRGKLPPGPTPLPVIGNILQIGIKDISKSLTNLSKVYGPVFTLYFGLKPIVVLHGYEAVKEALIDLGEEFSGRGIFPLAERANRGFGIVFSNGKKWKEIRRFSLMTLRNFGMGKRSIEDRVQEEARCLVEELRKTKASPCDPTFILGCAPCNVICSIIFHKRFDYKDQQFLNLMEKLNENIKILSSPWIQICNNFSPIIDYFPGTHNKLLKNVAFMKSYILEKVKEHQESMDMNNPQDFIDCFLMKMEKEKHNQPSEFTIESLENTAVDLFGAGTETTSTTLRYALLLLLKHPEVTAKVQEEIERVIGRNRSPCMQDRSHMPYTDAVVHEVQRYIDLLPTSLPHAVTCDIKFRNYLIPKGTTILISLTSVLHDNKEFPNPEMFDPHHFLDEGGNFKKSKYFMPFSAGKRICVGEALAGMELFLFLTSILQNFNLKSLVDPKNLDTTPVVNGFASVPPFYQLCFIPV
T4 sequence (P33261 whole entry): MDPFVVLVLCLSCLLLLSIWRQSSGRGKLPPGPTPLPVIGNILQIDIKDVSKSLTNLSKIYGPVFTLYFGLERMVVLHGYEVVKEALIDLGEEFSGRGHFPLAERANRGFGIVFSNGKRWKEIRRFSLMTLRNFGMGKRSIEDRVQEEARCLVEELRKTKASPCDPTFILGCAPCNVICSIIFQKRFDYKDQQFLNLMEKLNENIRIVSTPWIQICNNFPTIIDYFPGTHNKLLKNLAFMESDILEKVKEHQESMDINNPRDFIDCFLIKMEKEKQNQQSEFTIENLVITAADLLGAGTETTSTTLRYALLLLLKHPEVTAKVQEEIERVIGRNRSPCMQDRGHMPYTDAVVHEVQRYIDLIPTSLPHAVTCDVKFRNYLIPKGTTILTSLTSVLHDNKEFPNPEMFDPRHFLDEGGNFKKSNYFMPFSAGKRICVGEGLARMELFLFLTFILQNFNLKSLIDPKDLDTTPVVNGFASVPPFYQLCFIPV

CCOC(=O)c1cc(C(=O)c2ccc(Cl)cc2)n2ccc(-c3cc[n+](CC(=O)c4ccc(C)cc4)cc3)cc12 [Compound 6i]
IC50 [1]: > 5 µM
MIC ([2]; M. tuberculosis H37Rv, aerobic conditions, primary screen): 8.0 µM
MIC ([2]; MIC value taken from the first MIC assay): 8 µM
IC50 [2, 17]: 7.2 µM
IC90 [2, 17]: 8.2 µM
MIC [2, 17]: 8 µM
IC50 [3]: 7 µM
IC50 [4]: > 5 µM
IC50 CYP3A4-Midazolam ([5]; probe substrate midazolam): moderate inhibition
IC50 ([5]; probe substrate midazolam, read-out: IC50 CYP3A4-Midazolam): 0.48 µM
IC50 CYP3A4-Testosterone ([5]; probe substrate testosterone): high inhibition
IC50 ([5]; probe substrate testosterone, read-out: IC50 CYP3A4-Testosterone): 0.081 µM
IC50 [6]: > 5 µM
IC50 at 3 days [7]: 3.8 µM
IC50 [8]: > 5 µM
IC50 [9]: 6.5 µM
IC90 [9]: 28 µM
MIC ([9]; 120 h, oxygen-deprived bacteria, aerobic 5 d): 140 µM
IC50 ([10]; aerobic): 9.8 µM
IC90 ([10]; aerobic): 17 µM
MIC ([10]; repeated at lower starting concentrations, read-out: MIC aerobic condition): 16 µM
NADPH-dependent CLint ([11]; s9): very highly cleared
microsomal CLint at 1 μM ([11]; s9, NADPH-dependent CLint): 369 µL/min/mg
half-life at 1 μM ([11]; s9, NADPH-dependent T1/2): 6.3 min
microsomal CLint at 1 μM ([11]; s9, NADPH-free CLint): < 12.8 µL/min/mg
half-life at 1 μM ([11]; s9, NADPH-free T1/2): > 180 min
Mean plasma fraction bound ([12]; Human plasma, 5 µM, 4 h at 37 °C): strongly bound
fraction unbound at 4 h, 5 µM ([12]; human, human plasma, 5 µM, 4 h at 37 °C): 0.003
fraction unbound at 4 h, 5 µM ([12]; human, human plasma, Mean plasma fraction unbound, 5 µM, 4 h at 37 °C): 0.0035
recovery at 4 h, 5 µM ([12]; human, human plasma, dialysed against PBS in a RED device): 48.7%
MIC [13]: 50 µM
MIC ([13]; Mycobacterium avium): 50 µM
IC50 [14]: > 5 µM
Papp B→A [15]: 1.3 ×10⁻⁶ cm/s
efflux ratio [15]: 1.7
MIC [16]: showed activity
IC50 ([16]; Mycobacteroides abscessus): 14 µM
IC90 ([16]; Mycobacteroides abscessus): 23 µM
MIC ([16]; Mycobacteroides abscessus, read-out: MIC): 25 µM
